For experiment [1], the target named is T1, His6-HGFR (HGFR cytoplasmic domain) (Homo sapiens, UniProt P08581).
T1 construct: made in house; host or cells: Sf9 insect cells (Spodoptera frugiperda), baculovirus, pFastBac-HT vector
Nature of the experiment: Inhibitory activity against HGFR tyrosine kinase activity (HTRF). To be noted: biotin-poly(GT), ATP, 30° C. 10 min. Type of experiment: biochemical. The text has this: The cytoplasmic domain of HGFR (Genbank Accession No. J02958) is a 1.3 kb DNA fragment beginning with Lys974 and including a stop codon, and described by Park et al. (Proc. Natl. Acad. Sci. U.S.A. 84(18), 6379-6383, 1987). The DNA fragment was isolated from the human placental cDNA library (purchased from Clontech) by PCR (TaKaRa Ex Taq™ Kit, purchased from TaKaRa) using two kinds of primers (SEQ ID NO: 1,5′-[…]-3′ and SEQ ID NO: 2,5′-[…]-3′, purchased from Invitrogen). The DNA fragment was cloned into a baculovirus transplace vector (pFastBac™-HT (purchased from GIBCO BRL)) to produce a recombinant construct. […] EGFR was purchased from Sigma (Production No. E-2645).
To the suspension of Sf9 cells (3×10^8 cells) in SF-900II medium (purchased from Invitrogen) containing 2% FBS was added a solution of HGFR transfected baculovirus above (4 ml), followed by a shaking culture at 27° C. for 48 hrs. The cells infected with the HGFR transfected baculovirus were centrifuged at 1,000 rpm, 4° C. for 5 min to remove the supernatant. The precipitated infected cells were suspended in 80 ml of ice-cold PBS, and centrifuged at 1,000 rpm, 4° C. for 5 min to remove the supernatant. The precipitated infected cells were suspended in 40 ml of ice-cold Lysis Buffer (50 mM Tris-HCl (pH 8.5), 5 mM 2-mercaptoethanol, 100 mM KCl, 1 mM PMSF and 1% (v/v) NP-40). The suspension was centrifuged at 12,000 rpm, 4° C. for 30 min to provide a supernatant.
The supernatant was loaded onto an Ni-NTA agarose column (3 ml, purchased from Qiagen) equilibrated with 30 ml of Buffer A (20 mM Tris-HCl (pH 8.5), 5 mM 2-mercaptoethanol, 500 mM KCl, 20 mM imidazole and 10% (v/v) glycerol). The column was washed with 30 ml of Buffer A, 6 ml of Buffer B (20 mM Tris-HCl (pH 8.5), 5 mM 2-mercaptoethanol, 1 M KCl, and 10% (v/v) glycerol) and 6 ml of Buffer A in this order. Then, the column was eluted with 6 ml of Buffer C (20 mM Tris-HCl (pH 8.5), 5 mM 2-mercaptoethanol, 100 mM KCl, 100 mM imidazole, and 10% (v/v) glycerol) to provide a fraction. The fraction was entrapped in a dialysis membrane (purchased from Spectrum Laboratories), dialyzed at 4° C. overnight with 1 L of dialysis buffer (20 mM Tris-HCl (pH 7.5), 10% (v/v) glycerol, 1 mM dithiothreitol, 0.1 mM Na3VO4 and 0.1 mM EGTA), and stored at −80° C. until used. […] The VEGFR2 cytoplasmic domain, the FGFR1 cytoplasmic domain, and the PDGFRβ cytoplasmic domain were fused with six histidine at the N terminus by the similar method to produce respective recombinant proteins (His6-VEGFR2, His6-FGFR1, and His6-PDGFRβ).
To each well of a 96-well round plate (purchased from NUNC, Production No. 163320) were added 10 μl of a solution for kinase reaction (200 mM Hepes (pH 7.4), 80 mM MgCl2, 16 mM MnCl2 and 2 mM Na3VO4), 250 ng of biotinylated poly(Glu4: Tyr1) (biotin-poly(GT), purchased from Japan Schering) (6 μl, 15-fold diluted with distilled water), 30 ng of His6-HGFR (10 μl, 60-fold diluted with 0.4% BSA) and a test substance dissolved in dimethylsulfoxide (4 μl, 100-fold diluted with 0.1% BSA) to mess up to 30 μl. To the well was added 10 μl of 4 μM ATP (purchased from Sigma) diluted with distilled water to incubate at 30° C. for 10 min, followed by adding 10 μl of 500 mM EDTA (pH 8.0) (purchased from Wako Pure Chemicals) to provide a kinase reaction solution.
The tyrosine-phosphorylated biotin-poly(GT) was detected using the Homogenous Time-Resolved Fluorescence (HTRF) method (Analytical Biochemistry, 269, 94-104, 1999).

For experiment [2], the system named is Human gastric cancer cells (MKN-45). Nature of the experiment: Inhibitory activity against the proliferation of human gastric cancer cells (MKN-45). Type of experiment: cell-based. To be noted: 72 h, MKN-45, 1% FBS RPMI1640, 3 days, Cell Counting Kit-8. As for the experimental part:
Human gastric cancer cells (MKN-45) were suspended in a 1% FBS-containing RPMI1640 medium (purchased from Sigma). The cell suspension (1×10^4 cells/ml) was added in a 96-well plate for cell culture (purchased from NUNC, Production No. 167008) at 0.1 ml/well, and then cultured in a 5% CO2 incubator (37° C.) overnight. After the culture, each well was supplied with 0.1 ml of a test substance diluted with a 1% FBS-containing RPMI1640 medium, followed by culturing in a 5% CO2 incubator (37° C.) for 3 days. After the culture, each well was supplied with 10 μl of Cell Counting Kit-8 (purchased from DOJINDO, Production No. 343-07623), followed by incubation in a 5% CO2 incubator (37° C.) for about 1.5 hrs. After the incubation, using the Plate Reader MTP-500 (Corona Electric), the absorbance of each well was determined at a measurement wavelength of 450 nm and a reference wavelength of 660 nm.
(In general: Tetrazolium assays rely on reduction of a dye to a coloured formazan, in cell work by metabolically active cells.)

T1 sequence (P08581 956-1390 limits assumed): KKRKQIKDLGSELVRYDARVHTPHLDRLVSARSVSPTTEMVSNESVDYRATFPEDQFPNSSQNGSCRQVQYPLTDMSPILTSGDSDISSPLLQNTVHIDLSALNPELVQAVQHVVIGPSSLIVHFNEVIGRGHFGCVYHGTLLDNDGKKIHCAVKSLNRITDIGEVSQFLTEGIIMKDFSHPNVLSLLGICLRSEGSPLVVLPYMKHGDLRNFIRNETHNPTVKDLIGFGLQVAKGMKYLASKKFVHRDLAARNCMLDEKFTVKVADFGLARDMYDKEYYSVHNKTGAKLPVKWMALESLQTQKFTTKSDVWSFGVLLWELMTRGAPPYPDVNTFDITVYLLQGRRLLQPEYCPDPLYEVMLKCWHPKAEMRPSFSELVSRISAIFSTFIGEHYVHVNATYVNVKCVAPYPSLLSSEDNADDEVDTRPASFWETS

Usually IC50 stands for the concentration that inhibits the measured activity by half. Lower therefore signals greater potency. As to `O=C(Nc1cc(Oc2ccc(NC(=O)C3(C(=O)Nc4ccc(F)cc4)CC3)cc2F)ccn1)N1CCC(N2CCCC2)CC1` [Example 10, N-(4-Fluorophenyl)-N′-{3-fluoro-4-[(2-{[(4-pyrrolidin-1-ylpiperidin-1-yl)carbonyl]amino}pyridin-4-yl)oxy]phenyl}cyclopropane-1,1-dicarboxamide], the IC50 in experiment [1] worked out at 54 nM; in experiment [2], 42 nM.

Take `O=C(Nc1cc(Oc2ccc(NC(=O)C3(C(=O)Nc4ccc(F)cc4)CC3)cc2F)ccn1)N1CCC(N2CCC2)CC1` [Example 11, N-{4-[(2-{[(4-Azetidin-1-ylpiperidin-1-yl)carbonyl]amino}pyridin-4-yl)oxy]-3-fluorophenyl}-N′-(4-fluorophenyl)cyclopropane-1,1-dicarboxamide]: the figures for the IC50 in experiment [1] and in experiment [2] were 46 nM and 34 nM, respectively.

`CN(C)[C@@H]1CCN(C(=O)Nc2cc(Oc3ccc(NC(=O)C4(C(=O)Nc5ccc(F)cc5)CC4)cc3F)ccn2)C1` [Example 36, N-(4-{[2-({[(3R)-3-(Dimethylamino)pyrrolidin-1-yl]carbonyl}amino)pyridin-4-yl]oxy}-3-fluorophenyl)-N′-(4-fluorophenyl)cyclopropane-1,1-dicarboxamide]: the IC50 in experiment [1] worked out at 46 nM; in experiment [2], 22 nM.

Regarding `CN1CCN(C(=O)Nc2cc(Oc3cc(F)c(NC(=O)C4(C(=O)Nc5ccc(F)cc5)CC4)cc3F)ccn2)CC1` [Example 104, N-{2,5-Difluoro-4-[(2-{[(4-methylpiperazin-1-yl)carbonyl]amino}pyridin-4-yl]oxy}phenyl)-N′-(4-fluorophenyl)cyclopropane-1,1-dicarboxamide], the figures for the IC50 in experiment [1] and in experiment [2] were 71 nM and 6.8 nM, respectively.

Take `CN(C)CC1CN(C(=O)Nc2cc(Oc3ccc(NC(=O)C4(C(=O)Nc5ccc(F)cc5)CC4)c(F)c3)ccn2)C1` [Example 77, N-[4-({2-[({3-[(Dimethylamino)methyl]azetidin-1-yl}carbonyl)amino]pyridin-4-yl}oxy)-2-fluorophenyl]-N′-(4-fluorophenyl)cyclopropane-1,1-dicarboxamide]: the IC50 in experiment [1] was found to be 58 nM; in experiment [2] it was 19 nM.

In the case of `CN1CCN(C(=O)Nc2cc(Oc3ccc(NC(=O)C4(C(=O)Nc5ccc(F)cc5)CC4)c(F)c3)ccn2)CC1` [Example 64, N-{2-Fluoro-4-[(2-{[(1-methylpiperazin-4-yl)carbonyl]amino}pyridin-4-yl)oxy]phenyl}-N′-(4-fluorophenyl)cyclopropane-1,1-dicarboxamide], the half-maximal inhibitory concentration (IC50) in experiment [1] amounted to 58 nM; in experiment [2] it was 57 nM.

Regarding `CN(C)CC1CN(C(=O)Nc2cc(Oc3ccc(NC(=O)C4(C(=O)Nc5ccc(F)cc5)CC4)c(F)c3F)ccn2)C1` [Example 107, N-[4-({2-[({3-[(Dimethylamino)methyl]azetidine-1-yl}carbonyl)amino]pyridin-4-yl}oxy)-2,3-difluorophenyl]-N′-(4-fluorophenyl)cyclopropane-1,1-dicarboxamide], the half-maximal inhibitory concentration (IC50) was determined as 61 nM in experiment [1] and 21 nM in experiment [2].

As for `CN1CCN(C2CCN(C(=O)Nc3cc(Oc4ccc(NC(=O)C5(C(=O)Nc6ccc(F)cc6)CC5)cc4)ccn3)CC2)CC1` [Example 32, N-(4-Fluorophenyl)-N′-(4-{[2-({[4-(4-methylpiperazin-1-yl)piperidin-1-yl]carbonyl}amino)pyridin-4-yl]oxy}phenyl)cyclopropane-1,1-dicarboxamide], the half-maximal inhibitory concentration (IC50) was 50 nM in experiment [1] and 27 nM in experiment [2].

`CN(C)[C@H]1CCN(C(=O)Nc2cc(Oc3ccc(NC(=O)C4(C(=O)Nc5ccc(F)cc5)CC4)cc3F)ccn2)C1` [Example 24, N-(4-{[2-({[(3S)-3-(Dimethylamino)pyrrolidin-1-yl]carbonyl}amino)pyridin-4-yl]oxy}-3-fluorophenyl)-N′-(4-fluorophenyl)cyclopropane-1,1-dicarboxamide]: the IC50 in experiment [1] turned out to be 48 nM; in experiment [2], 17 nM.

As to `CN(C)C1CN(C2CCN(C(=O)Nc3cc(Oc4ccc(NC(=O)C5(C(=O)Nc6ccccc6)CC5)c(F)c4)ccn3)CC2)C1` [Example 55], the IC50 is 120 nM in experiment [1] and 43 nM in experiment [2].

Consider `O=C(Nc1cc(Oc2ccc(NC(=O)C3(C(=O)Nc4ccc(F)cc4)CC3)c(F)c2)ccn1)N1CC(CO)C1` [Example 75], for which the IC50 in experiment [1] stood at 10 nM; in experiment [2] it was 19 nM.

As for `O=C(Nc1cc(Oc2ccc(NC(=O)C3(C(=O)Nc4ccc(F)cc4)CC3)c(F)c2F)ccn1)N1CC(O)C1` [Example 106, N-[2,3-Difluoro-4-[(2-{[(3-hydroxyazetidin-1-yl)carbonyl]amino}pyridin-4-yl)oxy]phenyl}-N′-(4-fluorophenyl)cyclopropane-1,1-dicarboxamide], the IC50 in experiment [1] was 16 nM; in experiment [2], 46 nM.

On to `CN(C)[C@H]1CCN(C(=O)Nc2cc(Oc3ccc(NC(=O)C4(C(=O)Nc5ccc(F)cc5)CC4)cc3)ccn2)C1` [Example 41, N-(4-{[2-({[(3S)-3-(Dimethylamino)pyrrolidin-1-yl]carbonyl}amino)pyridin-4-yl]oxy}phenyl)-N′-(4-fluorophenyl)cyclopropane-1,1-dicarboxamide], for which the half-inhibitory concentration (IC50) in experiment [1] worked out at 44 nM; in experiment [2], 42 nM.

`CN1CCC(N(C)C(=O)Nc2cc(Oc3ccc(NC(=O)C4(C(=O)Nc5ccc(F)cc5)CC4)cc3F)ccn2)CC1` [Example 1, N-(3-Fluoro-4-{[2-({[methyl(1-methylpiperidin-4-yl)amino]carbonyl}amino)pyridin-4-yl]oxy}phenyl)-N′-(4-fluorophenyl)cyclopropane-1.1-dicarboxamide]: the IC50 in experiment [1] came out at 66 nM; in experiment [2] it was 13 nM.

With `CN1CCC(N2CCN(C(=O)Nc3cc(Oc4ccc(NC(=O)C5(C(=O)Nc6ccc(F)cc6)CC5)cc4F)ccn3)CC2)CC1` [Example 19, N-(3-Fluoro-4-{[2-({[4-(1-methylpiperidin-4-yl)piperazin-1-yl]carbonyl}amino)pyridin-4-yl]oxy}phenyl)-N′-(4-fluorophenyl)cyclopropane-1,1-dicarboxamide], the half-maximal inhibitory concentration (IC50) in experiment [1] turned out to be 61 nM; in experiment [2], 12 nM.

For `O=C(Nc1cc(Oc2ccc(NC(=O)C3(C(=O)Nc4ccc(F)cc4)CC3)cc2F)ccn1)N1CCOCC1` [Example 67, N-[3-Fluoro-4-({2-[(morpholin-4-ylcarbonyl)amino]pyridin-4-yl}oxy)phenyl]-N′-(4-fluorophenyl)-cyclopropane-1,1-dicarboxamide], the IC50 stood at 17 nM in experiment [1] and 52 nM in experiment [2].
